Laboratory results reported in US6797694B2, “Chemical compounds having ion channel blocking activity for the treatment of immune dysfunction” (priority 1999, dated 2004).

Tested on: T cells
Assay: Inhibition of antigen (PPD) induced T cell proliferation, [3H]thymidine incorporation
Assay type: cell-based
Settings: solvent control 26.1
Protocol: The chemical compounds used according to the invention prevent immunological proliferation by selective inhibition of the Ca^2+-activated K-channels in T- and B-lymphocytes. This effect may be verified using various proliferation assays. In this experiment the proliferative assay described by Ødum et al. [Ødum N, Kanner S B, Ledbetter J A, & Svejgaard A; J. Immunol. 1993 150 (12) 5289-5298] was used.
Assays were performed in culture medium (RPMI 1640; available from Gibco, Grand Island, N.Y.) supplemented with 10% pooled human serum, 2 mM L-glutamine, 100 μg/ml penicillin, and 100 μg/ml streptomycin (available from Novo Nordisk, Copenhagen, Denmark) in 96-well round bottom tissue culture plates (available from Nunc, Roskilde, Denmark) with a final volume of 200 μl.
T cells were pre-incubated for three hours with the test compounds before addition of antigen (PPD; Purified protein derivative, available from Statens Serum Institut, Denmark; 100 μg/ml). T cells were cultured at 5×10^4 cells/well for 144 hours. Twelve hours before harvest, [^3H]thymidine ([…]) was added. The cells were harvested onto glass fibre filters, and the [^3H]thymidine incorporation was measured in a scintillation counter. The results were expressed as mean counts per minute (cpm) from triplicate cultures.

| Compound | T Cell Proliferation (test compound 10 μM) [cpm × 10^−3] | T Cell Proliferation (test compound 25 μM) [cpm × 10^−3] |
| --- | --- | --- |
| OC(c1ccccc1)(c1ccccc1)c1ccc(Cl)cc1 [A, (4-chlorophenyl-diphenyl)-carbinol] | 19.8 | 18.1 |
| CC(=O)C(c1ccccc1)(c1ccccc1)c1ccccc1 [C, 1,1,1-triphenylacetone] | 18 | 19 |
